Values after ≈ are worked out from the molar mass of the structure shown.
Assays:
[1] = Solubility assay of crystalline form A in 17 solvents; assay type: physicochemical; details: thermodynamic from solid
Description: For solubility assay, about 5 mg or about 10 mg of crystalline form A was weighed into a 2 mL glass vial. A 20 µL aliquot of each of the 17 solvents listed in Table 8 was added to the vial to dissolve the drug substance. For about 5 mg of crystalline form A, the drug substance was dissolved at 25°C; and for about 10 mg of crystalline form A, the drug substance was dissolved at 50°C. To aid dissolution, vortexing and sonication were applied to facilitate dissolution, and the maximum volume of each solvent added was 1 mL.

[2] = Parallel artificial membrane permeability assay (PAMPA) for BBB permeability; assay type: in vitro ADME; details: PAMPA, pH 7.2, BBB lipid membrane, PBS (pH 7.2); read-out: PAMPA Pe
Description: • PAMPA: PMBBB-096 Kit • Assay format: 96-well plate • Reference substance: Imipramine (H) (10 µM) • Test substance concentration: 10 µM • Number of replicates: 3 • Reaction time: 6 hours at 25°C on a shaker (75 - 80 rpm) • Analytical method: LC-MS/MS • Data processing: Pe (cm/s)
The test compounds (crystalline forms A and C) were dissolved in DMSO at a concentration of 10 mM […] to prepare standard solutions. Next, dried brain lipids were resuspended in 600 µL dodecane to prepare a BBB lipid solution in dodecane. Pipetting up and down was repeated (~100 times) until all dried brain lipids were dissolved (vortexing or sonication may be helpful). A 10 µM reaction solution in PBS containing 5% DMSO was prepared.
The experiments were conducted in a 96-well plate using the prepared reaction solution of each test compound and the BBB lipid solution according to the following assay procedure. • 1. 500 µL of a 500 µM test compound solution (prepared by mixing 25 µL of a 10 mM test compound + 475 µL of PBS (pH 7.2) in DMSO) was prepared in a separate centrifuge tube. When a permeability control was used, it was diluted to 500 µM using PBS (prepared by mixing 25 µL of permeability control + 475 µL of PBS (pH 7.2)). • 2. For each test compound and control, a 200 µM equilibrium standard was prepared in a separate tube (by mixing 80 µL of 500 µM test compound or control with 120 µL of PBS (pH 7.2)). […] The absorbance spectrum from 200 nm to 500 nm was measured at 10 nm intervals to determine the peak absorbance of the test compounds. […] The peak absorbances of the high-permeability and low-permeability controls are 250 nm and 270 nm, respectively.
For the compounds and permeability controls, the permeability rate (Pe) was determined using the following equation: Pe = C × −ln(1−(ODA)/(ODE))cm/s [formula]
Here, ODA is the absorbance of the acceptor solution minus the blank, and ODE is the absorbance of the equilibrium standard minus the blank. For each absorbance value, the peak absorbance determined for each test was used. […]

For C[C@@H]1CC[C@H](C(=O)O)CN1C(=O)Cc1ccc(F)cc1Cl [Crystalline form A, (3S,6R)-1-(2-(2-chloro-4-fluorophenyl)acetyl)-6-methylpiperidine-3-carboxylic acid], the solubility ([1]; organic solvent or mixture, 1,4-Dioxane, 25°C) was over 250 mg/mL, the solubility ([1]; organic solvent or mixture, 1,4-Dioxane, 50°C) was over 500 mg/mL and the solubility ([1]; organic solvent or mixture, 2-MeTHF, 25°C) was over 250 mg/mL. For the same compound, the solubility ([1]; organic solvent or mixture, 2-MeTHF, 50°C) was over 500 mg/mL, the solubility ([1]; organic solvent or mixture, Acetone, 25°C) was 125 to 250 mg/mL (≈ 398 to 797 mM) and the solubility ([1]; organic solvent or mixture, Acetone, 50°C) was over 500 mg/mL. It also gave a solubility ([1]; organic solvent or mixture, Acetonitrile, 25°C) of 41 to 50 mg/mL (≈ 131 to 159 mM), a solubility ([1]; organic solvent or mixture, Acetonitrile, 50°C) of over 500 mg/mL and a solubility ([1]; organic solvent or mixture, DMF, 25°C) of over 250 mg/mL. For the same compound, the solubility ([1]; organic solvent or mixture, DMF, 50°C) was over 500 mg/mL, the solubility ([1]; organic solvent or mixture, DMSO, 25°C) was over 250 mg/mL and the solubility ([1]; organic solvent or mixture, DMSO, 50°C) was over 500 mg/mL. The solubility ([1]; organic solvent or mixture, Dichloromethane, 25°C) was over 250 mg/mL, the solubility ([1]; organic solvent or mixture, Dichloromethane, 50°C) was over 500 mg/mL and the solubility ([1]; organic solvent or mixture, Ethanol, 25°C) was 125 to 250 mg/mL (≈ 398 to 797 mM). It also gave a solubility ([1]; organic solvent or mixture, Ethanol, 50°C) of over 500 mg/mL, a solubility ([1]; organic solvent or mixture, Ethyl acetate, 25°C) of 41 to 50 mg/mL (≈ 131 to 159 mM) and a solubility ([1]; organic solvent or mixture, Ethyl acetate, 50°C) of 250 to 500 mg/mL (≈ 797 to 1590 mM). The solubility ([1]; organic solvent or mixture, Heptane, 25°C) was under 5 mg/mL, the solubility ([1]; organic solvent or mixture, Heptane, 50°C) was under 10 mg/mL and the solubility ([1]; organic solvent or mixture, Isopropyl acetate, 25°C) was 63 to 83 mg/mL (≈ 201 to 265 mM). The solubility ([1]; organic solvent or mixture, Isopropyl acetate, 50°C) was 125 to 167 mg/mL (≈ 398 to 532 mM), the solubility ([1]; organic solvent or mixture, MTBE, 25°C) was 16 to 20 mg/mL (≈ 51 to 63.7 mM) and the solubility ([1]; organic solvent or mixture, MTBE, 50°C) was 33 to 50 mg/mL (≈ 105 to 159 mM). It also gave a solubility ([1]; organic solvent or mixture, Methanol, 25°C) of over 250 mg/mL, a solubility ([1]; organic solvent or mixture, Methanol, 50°C) of over 500 mg/mL and a solubility ([1]; organic solvent or mixture, Methyl ethyl ketone, 25°C) of 83 to 125 mg/mL (≈ 265 to 398 mM). The solubility ([1]; organic solvent or mixture, Methyl ethyl ketone, 50°C) was 250 to 500 mg/mL (≈ 797 to 1590 mM), the solubility ([1]; organic solvent or mixture, Tetrahydrofuran, 25°C) was over 250 mg/mL and the solubility ([1]; organic solvent or mixture, Tetrahydrofuran, 50°C) was over 500 mg/mL. For the same compound, the solubility ([1]; organic solvent or mixture, Toluene, 25°C) was 17 to 25 mg/mL (≈ 54.2 to 79.7 mM), the solubility ([1]; organic solvent or mixture, Toluene, 50°C) was 50 to 100 mg/mL (≈ 159 to 319 mM) and the solubility ([1]; Water, 25°C) was under 5 mg/mL. The solubility ([1]; Water, 50°C) was under 10 mg/mL and the Papp at 6 h, 10 µM [2] was 0.00925 ×10⁻⁶ cm/s.

— EP4772497A1, “POLYMORPHS OF NITROGEN-CONTAINING HETEROCYCLIC COMPOUNDS, AND USES THEREOF” (BNH Research Co., Ltd., priority 2023, dated 2025)
